Read-outs that look alike come from different tables or passages of the source.
Legend:
[1] = tested on: NO synthesis in RAW 264.7 murine macrophages; assay: LPS-induced NO synthesis in RAW 264.7 murine macrophages (Griess); format: cell-based, mouse; details: 10 μM; relative to vehicle alone; FIG. 6
Method: The mouse macrophage cell line RAW 264.7 was cultured in DMEM supplemented with foetal calf serum (FCS), […] glutamine and 50 U/ml penicillin/streptomycin. Cells were treated with either test compound (in 0.025% DMSO) or vehicle alone, and added one hour before 50 ng/ml LPS. After incubation for 24 h, culture media was collected for PGE2 or TXB2 measurement by ELISA (Cayman Chemical), and TNFα measurement using an ELISA (Becton Dickinson). Nitrite concentration is a quantitative indicator of NO production and was determined by the Griess Reaction. Briefly, 100 μL of Griess reagent was added to 50 μL of each supernatant in duplicate. The absorbance at 550 nm was measured (Molecular Devices, SpectraMax 250 microplate spectrophotometer, CA, USA), and nitrite concentrations were determined against a standard curve of sodium nitrite. The percentage nitrite inhibition was calculated as: [100−(nitrite concentration of sample/nitrite of vehicle control LPS cells)×100]. Results Test compounds were examined a concentration of 10 μM. […] Consequently, to assess the effect of test compounds on various analytes, cell viability was taken into consideration with the use of the formula: Actual effect of test compound=measured effect−(effect on cell viability×measured effect)

[2] = tested on: TNFα synthesis in RAW 264.7 murine macrophages; assay: LPS-induced TNFα synthesis in RAW 264.7 murine macrophages; format: cell-based, mouse; details: 10 μM; relative to vehicle alone; FIG. 5
Method: The mouse macrophage cell line RAW 264.7 was cultured in DMEM supplemented with foetal calf serum (FCS), […] glutamine and 50 U/ml penicillin/streptomycin. Cells were treated with either test compound (in 0.025% DMSO) or vehicle alone, and added one hour before 50 ng/ml LPS. After incubation for 24 h, culture media was collected for PGE2 or TXB2 measurement by ELISA (Cayman Chemical), and TNFα measurement using an ELISA (Becton Dickinson). Test compounds were examined a concentration of 10 μM. […] Consequently, to assess the effect of test compounds on various analytes, cell viability was taken into consideration with the use of the formula: Actual effect of test compound=measured effect−(effect on cell viability×measured effect)

[3] = Free radical scavenging with DPPH; details: for EC50: DPPH, read-out: Free radical scavenging ability EC50
Method: The antioxidant (free radical trapping) activity of test compounds was assessed using the stable free radical compound 2,2-diphenyl-1-picrylhydrazyl (DPPH). A stock solution of DPPH was prepared at a concentration of […] in ethanol and mixed for 10 minutes prior to use. Test compounds at a concentration of 100 μM were reacted with DPPH for, 20 minutes, alter which time the absorbance at 517 nm was determined. Initial screening of was done at 100 μM. The change in absorbance at 517 nm was compared to a reagent blank (DPPH with ethanol alone). […] The IC50 values were estimated as the concentration of test compound that caused a 0.6 change in absorbance (with 1.2 absorbance units representing total scavenging of the DPPH radical).
The antioxidant (free radical trapping) activity of test compounds was assessed using the stable free radical compound 2,2-diphenyl-1-picrylhydrazyl (DPPH). A stock solution of DPPH was prepared […] in ethanol and mixed for 10 minutes prior to use. Initial screening of test compound at a concentration of 100 μM was reacted with DPPH for 20 minutes, after which time the absorbance at 517 nm was determined. The change in absorbance was compared to a reagent blank (DPPH with ethanol alone). […] The IC50 value was estimated as the concentration of test compound that causes a 0.6 change in absorbance (with 1.2 absorbance units representing total scavenging of the DPPH radical).

[4] = target: T1, GAL4-PPARγ fusion protein (Homo sapiens, UniProt P37231); assay: PPARγ activity in transfected HEK293 cells (beta-lactamase reporter); format: cell-based; details: FIG. 13: 1 μM
T1 construct: host or cells: HEK293 (human embryonic kidney), stably transfected
Method: Human HEK293 cells, stably transfected with the PPARγ ligand binding domain fused with the DNA binding domain of the GAL4 protein (GAL4-PPARγ fusion protein), produce beta-lactamase when incubated with PPARγ ligands. Transfected human kidney embryonic cells (Invitrogen Inc., Carlsbad, Calif.) were seeded onto matrigel in 96-well plates and allowed to attach overnight. The following day, vehicle alone (DMSO) or test compound at 1, 5 and 10 μM was added at varying concentrations to cells and incubated for 16-18 hours. Cells were then loaded with a FRET-based fluorescent substrate to assess beta-lactamase activity. Cells were protected from light, and incubated at room temperature for 2 h. Plates were read on a fluorescence plate reader with an excitation wavelength of 409 nm and emission wavelengths of 460 nm and 530 nm. Results were expressed as a ratio of these two wavelengths after the background (cell-free control wells) had been subtracted. PPARγ activity was thus determined by measuring beta-lactamase activity as assessed by a fluorescent product to substrate ratio.

MM200 = assay: Anti-cancer activity, MM200 melanoma cells (MTT); format: cell-based; details: 120 h; 5 days, MTT
cancer cell lines = assay: Anti-cancer activity, cancer cell lines tested as a group (MTT); format: cell-based; details: CP70, HPAC and MM200
CP70 = assay: Anti-cancer activity, CP70 ovarian cancer cells (MTT); format: cell-based; details: 120 h, 5 days
HPAC = assay: Anti-cancer activity, HPAC pancreatic cancer cells (MTT); format: cell-based; details: Homo sapiens, 120 h, 5 days
[5] = tested on: NFκB-promoter activity in TNFa-stimulated THP-1 monocyte/macrophages; assay: NFκB promoter activity in TNFα-stimulated THP-1 cells (beta-lactamase reporter); format: cell-based, human; details: 30 μM; FIG. 19
Method: The assay utilizes a genetically modified THP-1 cell line and GeneBLAzer® beta-lactamase technology (Invitrogen Corp). The human THP-1 monocyte/macrophages contain a stably-transfected beta-lactamase reporter gene under control of the NFκB response element They respond to stimulation with TNF-a, which leads to activation of the NFκB signaling pathway. Co-incubation of cells with TNF-a and test material allows quantitative determination of the ability of test material to inhibit TNFa-stimulated beta-lactamase production. Inflammatory index is calculated as the ratio of beta-lactamase product to beta-lactamase substrate. In brief, genetically modified THP-1 cells were seeded into wells of a 96-well plate (50×10^3 cells/well) in the presence of RPMI 1640 medium (70 μl). TNFα was added to each well (10 μl) to give a final concentration of 7.5 ng/ml. Dialyzed bovine serum was added (10 μl). Compounds dissolved in DMSO (10 μL) were then added (5 wells for each compound). Each plate contained a no-cell control (4 wells), a no-serum control (4 wells) and two serum controls. Plates were incubated for 5 h at 37° C. to allow for NFκB-stimulated beta-lactamase production. LiveBLAzer™ FRET B/G Substrate (CCF4-AM) substrate was then added to assay. CCF4-AM is a Forster resonance energy transfer (FRET) based substrate for beta-lactamase developed by Invitrogen Corp. Once CCFA-AM enters a cell, it is converted to negatively charged CCF4 by endogenous esterases. Excitation of this substrate at 409 nm leads to efficient FRET between the coumarin and fluorescein moieties, resulting in a green fluorescence detectable at 530 nm. The presence of beta-lactamase leads to cleavage of CCF4 and results in a loss of FRET, resulting in a robust blue fluorescent signal detectable at 460 nm. Thus, activity of beta-lactamase (a marker of NFκB-promoter activity) is measured as a product to substrate ratio (blue/green fluorescence ratio: 460 nm/530 nm). The determination of inflammatory index has a within-plate CV of 2.1% and a between-plate CV of 8.9% This comparative study was conducted according to the assay method set out in the example at Section 2.4 above.

red blood cells (RBC) = assay: Peroxyl radical (AAPH)-induced red blood cell lysis; format: cell-based
Method: Freshly collected heparinised venous blood (10 ml, on ice) was aliquotted into 1.8 ml sterile Eppendorf tubes and centrifuged for 10 minutes at 2600 rpm at 4° C. Plasma and buffy coat layers were removed (approximately […]) and packed red blood cells (RBC) were then washed by the addition of […], ice cold PBS. This washing procedure was repeated twice. Packed RBC were resuspended by the addition of 900 ml of ice-cold, sterile PBS (and termed RBC stock). RBC stocks were stored at 4° C. for a maximum of three days. All working suspensions of RBC were prepared fresh daily by diluting […] of RBC stock into 10 ml of ice-cold, sterile PBS and […] added to each well.
Stocks of AAPH were freshly prepared for individual experiments as follows. AAPH (1.22 gm) was dissolved in 7.5 ml of PBS to yield a 4× stock at 600 mM and […] aliquots (final concentration of 150 mM) were then added to each well to initiate the lysis assay. Stock solutions of test compounds (40 mM in 100% DMSO) were diluted in sterile PBS to yield final concentrations of […] per well. Appropriate controls were included in each experiment. All compound dilutions were adjusted to give final DMSO concentrations in each well of 0.25%. Peroxy-induced RBC lysis assays were performed in 96-flat bottom well microtitre plates with a total volume of […] per well. Turbidity of RBC suspensions were monitored using a Tecan microplate reader at 690 nm (37° C.) with gentle vortexing. Assays were performed in quadruplicate and readings were taken every 5 minutes over 5 hours. RBC lysis curves were constructed by plotting absorbance (mean of 4 readings) against time. Time to half-lysis was calculated by taking the highest absorbance reading (no lysis) and the lowest absorbance reading (maximum lysis). The sum of these two readings divided by two gave the absorbance at half-lysis. Simple regression analysis was used to calculate the time at which half-lysis absorbance occurred.
This comparative study was conducted according to the assay method set out in the example at Section 3.3 above.

[6] = 20 minutes, absorbance 517 nm, Table 4

T1 sequence (P37231 238-503 limits assumed): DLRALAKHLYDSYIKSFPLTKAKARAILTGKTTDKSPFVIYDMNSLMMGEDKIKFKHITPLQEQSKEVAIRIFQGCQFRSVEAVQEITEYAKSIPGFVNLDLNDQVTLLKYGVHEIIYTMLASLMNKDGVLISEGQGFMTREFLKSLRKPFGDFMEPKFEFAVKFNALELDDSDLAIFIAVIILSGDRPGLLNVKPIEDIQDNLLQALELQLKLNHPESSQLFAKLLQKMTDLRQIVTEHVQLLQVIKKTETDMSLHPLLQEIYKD
T1 sequence (P04386 1-147 partner limits assumed): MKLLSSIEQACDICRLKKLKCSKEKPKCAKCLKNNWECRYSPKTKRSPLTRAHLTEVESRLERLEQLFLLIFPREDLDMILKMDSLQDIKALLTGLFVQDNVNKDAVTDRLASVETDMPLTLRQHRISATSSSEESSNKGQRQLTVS

EC50 [3, 6]	PPARγ activation, increase in beta-lactamase activity over media only control [4]	IC50 (MM200)	IC50 (CP70)	IC50 (HPAC)	EC50 ([3]; comparative, Table 13)	Structure (SMILES)	mean change of LPS-induced NO synthesis [1]	mean change of LPS-induced TNFα synthesis [2]	activity against CP70, HPAC and MM200 cell lines (cancer cell lines)	NFκB inhibition [5]	antioxidant activity, AAPH-induced time to half-lysis of red blood cells (red blood cells (RBC))	Time taken to reach half-lysis, time (red blood cells (RBC); test compounds at 10 μM, vehicle 40.0, comparative, Table 14)	free radical scavenging / antioxidant activity in DPPH screen ([3]; 100 μM, ΔAbs>0.3 criterion)
22.5 µM						CN1COc2cc3c(cc2C1)C=C(c1ccc(O)cc1)CO3 [Compound 4, 4-(3-methyl-2,3,4,8-tetrahydrochromeno[6,7-e][1,3]oxazin-7-yl)phenol]	greatest inhibition	greatest inhibition					
24 µM	PPARγ agonist activity	11.3 ± 0.2 µM	5.08 ± 1.5 µM	9.64 ± 3.6 µM		COc1ccc(CN2COc3cc4c(cc3C2)C=C(c2ccc(O)cc2)CO4)cc1 [Compound 6, 4-(3-(4-Methoxybenzyl)-2,3,4,8-tetrahydrochromeno[6,7-e][1,3]oxazin-7-yl)phenol]		greatest inhibition	active				
21 µM	PPARγ agonist activity					Cc1cccc(N2COc3cc4c(cc3C2)C=C(c2ccc(O)cc2)CO4)c1 [Compound 22, 4-(3-m-Tolyl-2,3,4,8-tetrahydrochromeno[6,7-e][1,3]oxazin-7-yl)phenol]	greatest inhibition	greatest inhibition					
					> 100 µM	O=c1c(-c2ccc(O)cc2)coc2cc(O)cc(O)c12 [genistein, reference compound]				inhibited NFκB	delaying the AAPH-induced time to half-lysis	93.8 min	no antioxidant activity
